# Laboratory results as given in the Kinase Knowledgebase extract (Sharma et al. 2016).
# pIC50: −log10 of the molar value.
# Experiments:
# PIK3CD (Human) = PIK3CD (Human) (UniProt O00329); experiment: Enzyme Assay
# PIK3CG (human) = PIK3CG (human) (UniProt P48736); experiment: Enzyme Assay
# PIK3CG (human), sequence (P48736 whole entry, looked up): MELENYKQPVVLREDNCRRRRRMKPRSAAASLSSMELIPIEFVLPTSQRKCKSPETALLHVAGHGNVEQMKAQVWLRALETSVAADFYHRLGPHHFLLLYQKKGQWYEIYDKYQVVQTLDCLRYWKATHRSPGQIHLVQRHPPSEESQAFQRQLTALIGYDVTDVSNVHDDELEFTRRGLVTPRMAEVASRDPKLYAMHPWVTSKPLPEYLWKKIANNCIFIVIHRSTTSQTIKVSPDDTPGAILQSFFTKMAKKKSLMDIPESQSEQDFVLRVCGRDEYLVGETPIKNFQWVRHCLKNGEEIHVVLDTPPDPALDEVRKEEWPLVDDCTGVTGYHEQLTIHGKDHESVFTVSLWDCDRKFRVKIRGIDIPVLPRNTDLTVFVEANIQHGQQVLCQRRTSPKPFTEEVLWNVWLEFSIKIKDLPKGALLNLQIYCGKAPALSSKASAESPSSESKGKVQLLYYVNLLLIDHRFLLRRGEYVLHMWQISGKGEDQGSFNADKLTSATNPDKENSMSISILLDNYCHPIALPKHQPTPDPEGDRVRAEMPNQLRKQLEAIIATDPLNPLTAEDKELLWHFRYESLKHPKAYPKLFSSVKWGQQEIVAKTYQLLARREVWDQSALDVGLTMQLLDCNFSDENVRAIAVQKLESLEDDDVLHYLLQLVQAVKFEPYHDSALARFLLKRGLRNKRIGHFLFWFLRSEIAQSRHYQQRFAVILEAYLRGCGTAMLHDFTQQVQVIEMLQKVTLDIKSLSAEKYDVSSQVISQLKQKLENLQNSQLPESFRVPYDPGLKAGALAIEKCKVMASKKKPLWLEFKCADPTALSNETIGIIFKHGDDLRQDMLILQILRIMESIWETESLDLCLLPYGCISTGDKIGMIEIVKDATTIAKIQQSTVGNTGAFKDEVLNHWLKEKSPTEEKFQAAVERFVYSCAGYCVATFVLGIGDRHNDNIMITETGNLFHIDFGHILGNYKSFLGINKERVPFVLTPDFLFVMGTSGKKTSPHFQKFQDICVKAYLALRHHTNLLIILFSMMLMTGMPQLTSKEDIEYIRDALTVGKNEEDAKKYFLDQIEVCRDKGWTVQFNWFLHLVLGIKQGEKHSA
# PIK3CD (Human), sequence (O00329 whole entry, looked up): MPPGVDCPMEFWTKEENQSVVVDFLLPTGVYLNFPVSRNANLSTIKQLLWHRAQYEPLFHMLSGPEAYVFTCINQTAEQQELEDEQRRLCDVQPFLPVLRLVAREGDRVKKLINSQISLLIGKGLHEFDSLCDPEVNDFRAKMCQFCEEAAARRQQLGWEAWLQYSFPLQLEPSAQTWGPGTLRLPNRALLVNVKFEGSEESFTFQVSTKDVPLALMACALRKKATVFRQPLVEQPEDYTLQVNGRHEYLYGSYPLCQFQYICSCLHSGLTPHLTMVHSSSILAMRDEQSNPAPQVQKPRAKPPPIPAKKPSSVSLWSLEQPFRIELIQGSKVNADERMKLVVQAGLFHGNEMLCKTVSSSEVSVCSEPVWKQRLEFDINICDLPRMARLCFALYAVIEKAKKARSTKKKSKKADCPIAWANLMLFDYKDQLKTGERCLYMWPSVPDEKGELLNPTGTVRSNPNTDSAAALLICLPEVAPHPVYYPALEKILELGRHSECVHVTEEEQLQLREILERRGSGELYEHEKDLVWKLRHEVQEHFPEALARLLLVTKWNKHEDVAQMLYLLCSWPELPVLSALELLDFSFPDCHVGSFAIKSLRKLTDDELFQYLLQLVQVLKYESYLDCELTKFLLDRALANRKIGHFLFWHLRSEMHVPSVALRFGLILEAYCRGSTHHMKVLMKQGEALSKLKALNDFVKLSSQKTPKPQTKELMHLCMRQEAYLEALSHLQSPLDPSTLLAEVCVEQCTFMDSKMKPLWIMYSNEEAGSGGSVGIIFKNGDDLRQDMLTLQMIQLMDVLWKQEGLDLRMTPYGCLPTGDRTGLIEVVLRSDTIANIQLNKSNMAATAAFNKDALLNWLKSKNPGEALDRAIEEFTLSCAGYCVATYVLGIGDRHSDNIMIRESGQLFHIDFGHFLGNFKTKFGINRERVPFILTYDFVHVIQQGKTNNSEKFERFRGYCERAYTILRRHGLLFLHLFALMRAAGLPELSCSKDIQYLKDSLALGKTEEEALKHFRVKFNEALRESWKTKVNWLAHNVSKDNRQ
SMILES,pIC50 (PIK3CD (Human)),pIC50 (PIK3CG (human))
CCC(Nc1nc(N)nc(C)c1-c1cncc(S(N)(=O)=O)c1)c1nc2cccc(F)c2c(=O)n1-c1ccccc1 (configuration not stated),7.00 to 7.70,6.00 to 7.00
CCC(Nc1nc(N)nc(C)c1/C=C/C(=O)N1CCNCC1)c1nc2cccc(C)c2c(=O)n1-c1ccccc1 (configuration not stated),7.00 to 8.00,
CCC(Nc1nc(N)nc(C)c1/C=C1\CC(=O)NC1=O)c1nc2cccc(C)c2c(=O)n1-c1ccccc1 (configuration not stated),7.00 to 8.00,
CCC(Nc1nc(N)ncc1-c1cncc(S(=O)(=O)C(C)C)c1)c1nc2cccc(F)c2c(=O)n1-c1ccccc1 (configuration not stated),7.00 to 7.70,6.00 to 7.00
CCC(Nc1nc(N)ncc1-c1cncc(S(=O)(=O)N(C)C)c1)c1nc2cccc(F)c2c(=O)n1-c1ccccc1 (configuration not stated),7.00 to 7.70,7.00 to 7.70
C=Cc1c(C)nc(N)nc1NC(CC)c1nc2cccc(C)c2c(=O)n1-c1ccccc1 (configuration not stated),7.00 to 8.00,
CCC(Nc1nc(N)nc(C)c1/C=C/C(=O)Nc1ccncc1)c1nc2cccc(C)c2c(=O)n1-c1ccccc1 (configuration not stated),7.00 to 8.00,
CCNC(=O)/C=C/c1c(C)nc(N)nc1NC(CC)c1nc2cccc(C)c2c(=O)n1-c1ccccc1 (configuration not stated),7.00 to 8.00,
CCC(Nc1nc(N)nc(C)c1/C=C/C(=O)n1cccn1)c1nc2cccc(C)c2c(=O)n1-c1ccccc1 (configuration not stated),7.00 to 8.00,
CCC(Nc1nc(N)ncc1-c1cncc(S(=O)(=O)Nc2ccccc2F)c1)c1nc2cccc(F)c2c(=O)n1-c1ccccc1 (configuration not stated),> 7.70,7.00 to 7.70
CCC(Nc1nc(N)ncc1-c1cncc(S(N)(=O)=O)c1)c1nc2cccc(F)c2c(=O)n1-c1ccccc1 (configuration not stated),7.00 to 7.70,7.00 to 7.70
CCC(Nc1nc(N)nc(C)c1/C=C/C(=O)NC(C)C)c1nc2cccc(C)c2c(=O)n1-c1ccccc1 (configuration not stated),7.00 to 8.00,

# The remaining lines, values ahead:
pIC50 (PIK3CD (Human)),pIC50 (PIK3CG (human)),SMILES
> 8.00,,CCC(Nc1nc(N)nc(C)c1/C=C/C(=O)Nc1cccnc1)c1nc2cccc(C)c2c(=O)n1-c1ccccc1 (configuration not stated)
> 7.70,7.00 to 7.70,CCC(Nc1nc(N)ncc1-c1cncc(S(=O)(=O)Nc2ccc(F)c(Cl)c2)c1)c1nc2cccc(F)c2c(=O)n1-c1ccccc1 (configuration not stated)
> 7.70,> 7.70,CCC(Nc1nc(N)ncc1-c1cncc(S(=O)(=O)N2CCCC2)c1)c1nc2cccc(F)c2c(=O)n1-c1ccccc1 (configuration not stated)
> 8.00,,CCC(Nc1nc(N)nc(C)c1/C=C/C(=O)N1CCOCC1)c1nc2cccc(C)c2c(=O)n1-c1ccccc1 (configuration not stated)
> 8.00,,CCC(Nc1nc(N)nc(C)c1/C=C/C(=O)NC)c1nc2cccc(C)c2c(=O)n1-c1ccccc1 (configuration not stated)
> 8.00,,CCC(Nc1nc(N)nc(C)c1/C=C/C(=O)Nc1cccc(C)n1)c1nc2cccc(C)c2c(=O)n1-c1ccccc1 (configuration not stated)
> 8.00,,CCC(Nc1nc(N)nc(C)c1/C=C/C(=O)Nc1ccccn1)c1nc2cccc(C)c2c(=O)n1-c1ccccc1 (configuration not stated)
> 8.00,,CCC(Nc1nc(N)nc(C)c1/C=C/C(=O)Nc1nccs1)c1nc2cccc(C)c2c(=O)n1-c1ccccc1 (configuration not stated)
> 7.70,6.00 to 7.00,CCC(Nc1nc(N)ncc1-c1cncc(S(=O)(=O)Nc2ccccc2C)c1)c1nc2cccc(F)c2c(=O)n1-c1ccccc1 (configuration not stated)
> 8.00,,CCC(Nc1nc(N)nc(C)c1/C=C/C(N)=O)c1nc2cccc(C)c2c(=O)n1-c1ccccc1 (configuration not stated)
> 7.70,7.00 to 7.70,CCC(Nc1nc(N)ncc1-c1cncc(S(=O)(=O)NC(C)(C)C)c1)c1nc2cccc(C)c2c(=O)n1-c1ccccc1 (configuration not stated)
